Laboratory results from PubChem BioAssay (NCI).
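In this assay, cells in 96-well plates receive the compound at five concentrations for 48 hours. Endpoints are linearly interpolated between the surrounding concentrations. Abbreviation: GI50, concentration required for 50% inhibition of growth. TGI: concentration producing complete growth inhibition.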

How the values were obtained:
Test in all cases: inhibition of tumour cell growth, NCI panel, 48 h
A498 renal = tested on: A498 renal
OVCAR-5 ovarian = tested on: OVCAR-5 ovarian
SF-268 CNS = tested on: SF-268 CNS
SK-MEL-5 melanoma = tested on: SK-MEL-5 melanoma
HOP-92 NSCLC = tested on: HOP-92 NSCLC
MOLT-4 leukemia = tested on: MOLT-4 leukemia
OVCAR-4 ovarian = tested on: OVCAR-4 ovarian
MALME-3M melanoma = tested on: MALME-3M melanoma
EKVX NSCLC = tested on: EKVX NSCLC
SK-OV-3 ovarian = tested on: SK-OV-3 ovarian
SNB-75 CNS = tested on: SNB-75 CNS
IGROV1 ovarian = tested on: IGROV1 ovarian
HCT-15 colon = tested on: HCT-15 colon
HOP-62 NSCLC = tested on: HOP-62 NSCLC

Q: Oc1cn(-c2ccc(Cl)cc2)nc1-c1n[nH]c(=S)n1-c1ccccc1 was tested. Which TGI (A498 renal) did it give?
A: 37.5 µM

Q: And the TGI (OVCAR-5 ovarian)?
A: 46.2 µM

Q: What about the TGI (SF-268 CNS) of the same compound?
A: 64.2 µM

Q: What about the TGI (SK-MEL-5 melanoma) of the same compound?
A: 15.4 µM

Q: What about the TGI (HOP-92 NSCLC) of the same compound?
A: > 100 µM

Q: What about the TGI (MOLT-4 leukemia) of the same compound?
A: > 100 µM

Q: And the TGI (OVCAR-4 ovarian)?
A: > 100 µM

Q: What about the TGI (MALME-3M melanoma) of the same compound?
A: 62.9 µM

Q: What about the TGI (EKVX NSCLC) of the same compound?
A: 82.1 µM

Q: What about the TGI (SK-OV-3 ovarian) of the same compound?
A: 51.3 µM

Q: What about the TGI (SNB-75 CNS) of the same compound?
A: > 100 µM

Q: And the TGI (IGROV1 ovarian)?
A: 22.2 µM

Q: What about the TGI (HCT-15 colon) of the same compound?
A: 14.9 µM

Q: And the TGI (HOP-62 NSCLC)?
A: 22.7 µM

Q: With COc1ccc2c(c1)CCCN2CCCCCCCCCCN(CCC(C)C)CCC(C)C as the compound, how does the TGI (A498 renal) read?
A: 31 µM

Q: And the TGI (OVCAR-5 ovarian)?
A: 28.4 µM

Q: What about the TGI (SF-268 CNS) of the same compound?
A: 25.6 µM

Q: And the TGI (SK-MEL-5 melanoma)?
A: 18.9 µM

Q: What about the TGI (HOP-92 NSCLC) of the same compound?
A: 17 µM

Q: And the TGI (MOLT-4 leukemia)?
A: 22.6 µM

Q: And the TGI (OVCAR-4 ovarian)?
A: 19.4 µM

Q: What about the TGI (MALME-3M melanoma) of the same compound?
A: 28.1 µM

Q: And the TGI (EKVX NSCLC)?
A: 20 µM

Q: What about the TGI (SK-OV-3 ovarian) of the same compound?
A: 40.9 µM

Q: What about the TGI (IGROV1 ovarian) of the same compound?
A: 27.7 µM

Q: What about the TGI (HCT-15 colon) of the same compound?
A: 23.4 µM

Q: What about the TGI (HOP-62 NSCLC) of the same compound?
A: 26.1 µM

Q: How did the TGI (A498 renal) turn out when Nc1n[nH]c(=O)c2c1c(I)cn2C1OC(CO)C(O)C1O (centres undefined) was run?
A: > 100 µM

Q: What about the TGI (SF-268 CNS) of the same compound?
A: 25.7 µM

Q: What about the TGI (SK-MEL-5 melanoma) of the same compound?
A: 13.6 µM

Q: And the TGI (HOP-92 NSCLC)?
A: 3.05 µM

Q: And the TGI (MOLT-4 leukemia)?
A: 2.29 µM

Q: What about the TGI (OVCAR-4 ovarian) of the same compound?
A: 14.4 µM

Q: What about the TGI (MALME-3M melanoma) of the same compound?
A: 17.3 µM

Q: And the TGI (EKVX NSCLC)?
A: 7.85 µM

Q: What about the TGI (SK-OV-3 ovarian) of the same compound?
A: > 100 µM

Q: And the TGI (SNB-75 CNS)?
A: 2.81 µM

Q: What about the TGI (IGROV1 ovarian) of the same compound?
A: > 100 µM

Q: And the TGI (HCT-15 colon)?
A: 3.05 µM

Q: What about the TGI (HOP-62 NSCLC) of the same compound?
A: 21.5 µM

Q: Which results are given for CN(C)CCNC(=O)c1cccc2ccc(-c3ccc(F)cc3)nc12?
A: TGI (A498 renal): 17.5 µM; TGI (OVCAR-5 ovarian): 25.6 µM; TGI (SF-268 CNS): 22.2 µM; TGI (SK-MEL-5 melanoma): 11.1 µM; TGI (HOP-92 NSCLC): 18 µM; TGI (MOLT-4 leukemia): 7.03 µM; TGI (OVCAR-4 ovarian): 18.3 µM; TGI (MALME-3M melanoma): 13.6 µM; TGI (SK-OV-3 ovarian): 24.8 µM; TGI (SNB-75 CNS): 19.6 µM; TGI (IGROV1 ovarian): 20.3 µM; TGI (HCT-15 colon): 16.1 µM; TGI (HOP-62 NSCLC): 27.8 µM

Q: Which results are given for COc1ccc(-c2nc3ncccn3c2-c2ccc(SC)cc2)cc1?
A: TGI (OVCAR-5 ovarian): 7.06 µM; TGI (SF-268 CNS): 3.15 µM; TGI (SK-MEL-5 melanoma): 4.29 µM; TGI (HOP-92 NSCLC): 70.4 µM; TGI (MOLT-4 leukemia): > 100 µM; TGI (OVCAR-4 ovarian): > 100 µM; TGI (SK-OV-3 ovarian): 2.85 µM; TGI (SNB-75 CNS): > 100 µM; TGI (IGROV1 ovarian): 8.15 µM; TGI (HCT-15 colon): > 100 µM; TGI (HOP-62 NSCLC): 44.3 µM

Q: With Cc1cc(/N=C/c2ccc(F)cc2)n(-c2ccccc2)n1 as the compound, how does the TGI (A498 renal) read?
A: > 100 µM

Q: What about the TGI (OVCAR-5 ovarian) of the same compound?
A: > 100 µM

Q: What about the TGI (SF-268 CNS) of the same compound?
A: > 100 µM

Q: What about the TGI (SK-MEL-5 melanoma) of the same compound?
A: > 100 µM

Q: And the TGI (HOP-92 NSCLC)?
A: > 100 µM

Q: What about the TGI (MOLT-4 leukemia) of the same compound?
A: > 100 µM

Q: What about the TGI (OVCAR-4 ovarian) of the same compound?
A: > 100 µM

Q: What about the TGI (MALME-3M melanoma) of the same compound?
A: > 100 µM

Q: What about the TGI (EKVX NSCLC) of the same compound?
A: > 100 µM

Q: And the TGI (SK-OV-3 ovarian)?
A: > 100 µM

Q: What about the TGI (SNB-75 CNS) of the same compound?
A: > 100 µM

Q: What about the TGI (IGROV1 ovarian) of the same compound?
A: > 100 µM

Q: What about the TGI (HCT-15 colon) of the same compound?
A: > 100 µM

Q: And the TGI (HOP-62 NSCLC)?
A: > 100 µM

Q: Which results are given for O=C(Nc1ccc([N+](=O)[O-])cc1[N+](=O)[O-])C(=O)C(C(=O)c1ccc2ccccc2c1)C1OC(=O)c2ccccc21 (centres undefined)?
A: TGI (A498 renal): 52.7 µM; TGI (OVCAR-5 ovarian): 58.2 µM; TGI (SF-268 CNS): 43.1 µM; TGI (SK-MEL-5 melanoma): 31.6 µM; TGI (HOP-92 NSCLC): 55.6 µM; TGI (MOLT-4 leukemia): 62.2 µM; TGI (OVCAR-4 ovarian): 60.3 µM; TGI (EKVX NSCLC): 48 µM; TGI (SK-OV-3 ovarian): 42.1 µM; TGI (SNB-75 CNS): 50.7 µM; TGI (IGROV1 ovarian): 43.5 µM; TGI (HCT-15 colon): 30.7 µM; TGI (HOP-62 NSCLC): 68.4 µM

Q: How did the TGI (OVCAR-5 ovarian) turn out when Cc1cc2c(cc1C(=O)c1ccc(N)cc1)OCO2 was run?
A: > 100 µM

Q: What about the TGI (SF-268 CNS) of the same compound?
A: > 100 µM

Q: What about the TGI (SK-MEL-5 melanoma) of the same compound?
A: 61.4 µM

Q: And the TGI (HOP-92 NSCLC)?
A: > 100 µM

Q: And the TGI (MOLT-4 leukemia)?
A: > 100 µM

Q: And the TGI (MALME-3M melanoma)?
A: > 100 µM

Q: What about the TGI (EKVX NSCLC) of the same compound?
A: > 100 µM

Q: And the TGI (SK-OV-3 ovarian)?
A: 85.6 µM

Q: And the TGI (IGROV1 ovarian)?
A: > 100 µM

Q: And the TGI (HCT-15 colon)?
A: > 100 µM

Q: And the TGI (HOP-62 NSCLC)?
A: > 100 µM

Q: With COc1cc(/C=C/C(=O)Oc2ccc(NC(C)=O)cc2)ccc1C(=O)O/C=C/c1ccccc1 as the compound, how does the TGI (A498 renal) read?
A: > 100 µM

Q: And the TGI (OVCAR-5 ovarian)?
A: > 100 µM

Q: What about the TGI (SF-268 CNS) of the same compound?
A: > 100 µM

Q: What about the TGI (SK-MEL-5 melanoma) of the same compound?
A: > 100 µM

Q: And the TGI (HOP-92 NSCLC)?
A: > 100 µM

Q: And the TGI (MOLT-4 leukemia)?
A: > 100 µM

Q: What about the TGI (OVCAR-4 ovarian) of the same compound?
A: > 100 µM

Q: And the TGI (MALME-3M melanoma)?
A: > 100 µM

Q: And the TGI (EKVX NSCLC)?
A: > 100 µM

Q: And the TGI (SK-OV-3 ovarian)?
A: > 100 µM

Q: And the TGI (SNB-75 CNS)?
A: > 100 µM

Q: What about the TGI (IGROV1 ovarian) of the same compound?
A: > 100 µM

Q: And the TGI (HCT-15 colon)?
A: > 100 µM

Q: What about the TGI (HOP-62 NSCLC) of the same compound?
A: > 100 µM

Q: How did the TGI (A498 renal) turn out when CN(C)CCCn1cnc2cc(Cl)c(Cl)cc21 was run?
A: > 100 µM

Q: And the TGI (OVCAR-5 ovarian)?
A: > 100 µM

Q: What about the TGI (SF-268 CNS) of the same compound?
A: > 100 µM

Q: And the TGI (SK-MEL-5 melanoma)?
A: > 100 µM

Q: And the TGI (OVCAR-4 ovarian)?
A: > 100 µM

Q: What about the TGI (MALME-3M melanoma) of the same compound?
A: > 100 µM

Q: What about the TGI (EKVX NSCLC) of the same compound?
A: > 100 µM

Q: And the TGI (SK-OV-3 ovarian)?
A: > 100 µM

Q: What about the TGI (SNB-75 CNS) of the same compound?
A: 98.9 µM

Q: And the TGI (IGROV1 ovarian)?
A: > 100 µM

Q: And the TGI (HCT-15 colon)?
A: > 100 µM

Q: What about the TGI (HOP-62 NSCLC) of the same compound?
A: > 100 µM

Q: Which results are given for NCCc1cc(O)c(O)cc1O?
A: TGI (A498 renal): > 100 µM; TGI (OVCAR-5 ovarian): 61.3 µM; TGI (SF-268 CNS): 58.5 µM; TGI (SK-MEL-5 melanoma): 38.6 µM; GI50 (HOP-92 NSCLC): 10 µM; TGI (HOP-92 NSCLC): 59.5 µM; TGI (MOLT-4 leukemia): 70.7 µM; GI50 (OVCAR-4 ovarian): 12.3 µM; TGI (OVCAR-4 ovarian): 25.6 µM; TGI (MALME-3M melanoma): > 74.1 µM; TGI (EKVX NSCLC): 65.9 µM; TGI (SK-OV-3 ovarian): > 84.1 µM; TGI (SNB-75 CNS): 70.6 µM; TGI (IGROV1 ovarian): 38.2 µM; TGI (HCT-15 colon): 44.5 µM; TGI (HOP-62 NSCLC): 45 µM
